One assay concerns the target T1, vanilloid receptor (Rattus norvegicus, UniProt O35433).
T1 construct: DRG nerve cells from the primary culture of 2 days were equilibrated by washing 4 times; endogenous in cells; host or cells: primary culture of dorsal root ganglion (DRG) neurons from neonatal SD rats
Put plainly: 45Ca influx test (calcium uptake) in primary cultured neonatal rat DRG neurons, capsaicin-stimulated. Type of assay: cell-based, SD rats. The following applies: capsaicin 0.5 µM, 45Ca 10 µCi/ml, 10 mins at room temperature, read-out: Antagonist Calcium Uptake Test (IC50). As for the experimental part:
1) Separation of spinal dorsal root ganglia (DRG) in newborn rats and primary culture thereof
Neonatal (2-3 day old or younger than 2-3 day old) SD rats were put in ice for 5 minutes to anesthetize and disinfected with 70% ethanol. DRG of all part of spinal cord were dissected (Wood et al., 1988, J. Neurosci. 8, pp3208-3220) and collected in DME/F12 medium to which 1.2g/l sodium bicarbonate, 50mg/l gentamycin were added. The DRG were incubated sequentially at 37°C for 30 min in 200 U/ml collagenase and 2.5mg/ml trypsin, separately. The gangiia were washed twice with DME/F12 medium supplemented with 10% horse serum, triturated through a fire-polished Pasteur pipette, filtered through Nitex 80 membrane to obtain single cell suspension and the suspension was washed once more. This was subjected to centrifugation, then resuspended in cell culture medium at certain level of cell density. As the cell culture medium, DME/F12 medium supplemented with 10% horse serum was diluted with identical medium conditioned by C6 glioma cells 2 days on a confluent monolayer (1:1), and NGF (Nerve Growth Factor) was added to adjust 200ng/ml as final concentration. After the cells were grown 2 days in medium where cytosine arabinoside (Ara-C, 100 µM) was added to kill dividing nonneuronal cells, medium was changed to one without Ara-C. The resuspended cells were plated at a density of 1500-2000 neurons/well onto Terasaki plates previously coated with 10 µg/ml poly-D-ornithine.
2) ^45 Ca influx experiments
DRG nerve cells from the primary culture of 2 days were equilibrated by washing 4 times with HEPES (10mM, pH 7.4)-buffered Ca ^2+, Mg^2+-free HBSS (H-HBSS). The solution in each well was removed from the individual well. Medium containing the test compound plus capsaicin (final concentration 0.5 µM) and ^45Ca (final concentration 10 µCi/ml) in H-HBSS was added to each well and incubated at room temperature for 10 mins. Terasaki plates were washed five times with H-HBSS and dried at room temperature. To each well, 0.3% SDS (10 µl) was added to elute ^45Ca. After the addition of scintillation cocktail of into each well, the amount of ^45Ca influx into neuron was measured by counting radioactivity. […] [Table 1] Results of Calcium Influx Test

Another assay has as its system Male ICR mice. Put plainly: Analgesic activity test: mouse writhing test induced with phenyl-p-quinone. Type of assay: in vivo. Particulars: ip, 0.5 h, 30 min before phenyl-p-quinone, read-out: Analgesic effect (%Inhibition); for inhibition in vivo at 1 mg/kg: Dose 1 mg/kg intraperitoneally. As for the experimental part:
2. Analgesic activity test: Mouse writhing test by inducing with phenyl-p-quinone
Male ICR mice (mean body weight 25g) were maintained in a controlled lighting environment (12 h on/ 12 h off) for experiment. Animals received an intraperitoneal injection of 0.3ml of the chemical irritant phenyl-p-quinone (dissolved in saline containing 5% ethanol to be a dose of 4.5mg/kg) and 6 mins later, the number of abdominal constrictions was counted in the subsequent 6 mins period. Animals (10 animals/group) received 0.2ml of test compounds solution in vehicle of ethanol/Tween 80/saline (10/10/80) intraperitoneally 30 min before the injection of phenyl-p-quinone. A reduction in the number of writhes responding to the test drug compound relative to the number responding in saline control group was considered to be indicative of an analgesic effect. Analgesic effect was calculated by % inhibition equation (% inhibition=(C-T)/C x 100), wherein C and T represent the number of writhes in control and compound-treated group, respectively (Table 2).

Molecules are shown by their SMILES.

T1 sequence (O35433 whole entry): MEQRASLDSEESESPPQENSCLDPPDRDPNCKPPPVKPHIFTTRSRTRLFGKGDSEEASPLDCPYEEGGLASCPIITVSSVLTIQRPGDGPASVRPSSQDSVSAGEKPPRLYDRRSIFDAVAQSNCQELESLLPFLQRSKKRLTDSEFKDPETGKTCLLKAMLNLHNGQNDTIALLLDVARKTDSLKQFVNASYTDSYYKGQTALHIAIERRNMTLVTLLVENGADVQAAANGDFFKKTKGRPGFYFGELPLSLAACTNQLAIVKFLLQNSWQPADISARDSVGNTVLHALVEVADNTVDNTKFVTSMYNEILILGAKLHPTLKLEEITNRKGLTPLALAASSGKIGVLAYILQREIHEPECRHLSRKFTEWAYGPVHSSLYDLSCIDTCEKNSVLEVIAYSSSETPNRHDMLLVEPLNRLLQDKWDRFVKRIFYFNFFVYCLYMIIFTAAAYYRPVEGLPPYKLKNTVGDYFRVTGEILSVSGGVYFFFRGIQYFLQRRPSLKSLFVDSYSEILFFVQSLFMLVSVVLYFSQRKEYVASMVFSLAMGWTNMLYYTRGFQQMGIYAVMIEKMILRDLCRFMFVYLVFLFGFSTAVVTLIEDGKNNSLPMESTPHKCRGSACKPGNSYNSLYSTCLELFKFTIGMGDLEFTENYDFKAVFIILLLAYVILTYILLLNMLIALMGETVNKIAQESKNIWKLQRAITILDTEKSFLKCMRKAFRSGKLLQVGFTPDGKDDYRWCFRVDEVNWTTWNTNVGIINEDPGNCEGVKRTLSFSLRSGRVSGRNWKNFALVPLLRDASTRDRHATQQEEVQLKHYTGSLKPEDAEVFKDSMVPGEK

As for `CC(C)(C)c1ccc(OCC(=NC#N)NCc2ccc(NS(C)(=O)=O)c(F)c2)cc1` [Example 18, 2-(4-tert-Butylphenoxy)-N-(3-fluoro-4-methanesulfonylaminobenzyl)-N'-cyanoacetamidine], the IC50 at vanilloid receptor was 120 nM. Moreover, the inhibition in vivo at 1 mg/kg in the assay with Male ICR mice came to 33%. Regarding `CC(C)(C)c1ccc(OCC(=O)NCc2ccc(NS(C)(=O)=O)c(F)c2)cc1` [Example 2, 2-(4-tert-Butylphenoxy)-N-(3-fluoro-4-methanesulfonylaminobenzyl)acetamide], the IC50 at vanilloid receptor is 8.6 nM. Besides, the inhibition in vivo at 0.3 mg/kg in the assay on Male ICR mice (Dose 0.3 mg/kg intraperitoneally) came to 51%.

In the case of `CCC(C)c1ccc(OCC(=O)NCc2ccc(NS(C)(=O)=O)c(F)c2)cc1` (stereo not drawn) [Example 53, N-(3-Fluoro-4-methanesulfonylaminobenzyl)-2-(4-sec-butylphenoxy)acetamide], on vanilloid receptor, the IC50 stood at 74 nM. The inhibition in vivo at 1 mg/kg in the assay on Male ICR mice was 49%.

Regarding `C#Cc1cc(CNC(=O)COc2ccc(C(C)(C)C)cc2)cc(F)c1NS(C)(=O)=O` [Example 6, 2-(4-tert-Butylphenoxy)-N-(3-ethynyl-5-fluoro-4-methanesulfonylaminobenzyl)acetamide], the IC50 on vanilloid receptor is 19 nM. Besides, the inhibition in vivo at 0.1 mg/kg in the assay with Male ICR mice (Dose 0.1 mg/kg intraperitoneally) stood at 41%. With `CC(C)(Oc1ccc(C(F)(F)F)cc1)C(=O)NCc1ccc(NS(C)(=O)=O)c(Cl)c1` [Example 21, N-(3-Chloro-4-methanesulfonylamino-benzyl)-2-methyl-2-(4-trifluoromethyl-phenoxy)-propionamide], at vanilloid receptor, the IC50 is more than 10000 nM. With `CS(=O)(=O)Nc1ccc(CNC(=O)COc2ccc(F)cc2F)cc1F` [Example 37, N-(3-Fluoro-4-methanesulfonylaminobenzyl)-2-(2,4-difluorophenoxy)acetamide], the IC50 on vanilloid receptor was more than 10000 nM. Same read-out and setting: in the case of `C=Cc1cc(CNC(=O)COc2ccc3c(c2)OCO3)cc(F)c1NS(C)(=O)=O` [Example 30, 2-(Benzo[1,3]dioxol-5-yloxy)-N-(3-fluoro-4-methanesulfonylamino-5-vinyl-benzyl)-acetamide] it was 3400 nM; in that of `CS(=O)(=O)Nc1ccc(CNC(=O)COc2cccc(-c3ccccc3Cl)c2)cc1F` [Example 61, 2-(2'-Chloro-biphenyl-3-yloxy)-N-(3-fluoro-4-methanesulfonylaminobenzyl)-acetamide], 4500 nM; in that of `CS(=O)(=O)Nc1ccc(CNC(=O)COc2ccc(F)c(F)c2)cc1F` [Example 54, N-(3-Fluoro-4-methanesulfonylaminobenzyl)-2-(3,4-difluorophenoxy)acetamide], more than 10000 nM. Consider `CS(=O)(=O)Nc1ccc(CNC(=O)COc2ccc3c(c2)OCO3)cc1F` [Example 29, 2-(Benzo[1,3]dioxol-5-yloxy)-N-(3-fluoro-4-methanesulfonylaminobenzyl)-acetamide], for which the IC50 on vanilloid receptor is more than 10000 nM. On to `COc1cc(C)ccc1OCC(=O)NCc1ccc(NS(C)(=O)=O)c(F)c1` [Example 31, N-(3-Fluoro-4-methanesulfonylamino-benzyl)-2-(2-methoxy-4-methyl-phenoxy)-acetamide], for which the half-inhibitory concentration (IC50) at vanilloid receptor is more than 10000 nM.

As for `C[C@@H](NC(=O)COc1ccc(C(C)(C)C)cc1)c1ccc(NS(C)(=O)=O)c(F)c1` [Example 12, (R)-2-(4-tert-Butylphenoxy)-N-[1-(3-fluoro-4-methanesuffonylaminophenyl)ethyl]acetamide], the IC50 at vanilloid receptor worked out at 71 nM. Further, the inhibition in vivo at 1 mg/kg in the assay on Male ICR mice was found to be 27%. Regarding `Cc1cc(OCC(=O)NCc2ccc(NS(C)(=O)=O)c(F)c2)ccc1[N+](=O)[O-]` [Example 35, N-(3-Fluoro-4-methanesulfonylaminobenzyl)-2-(3-methyl-4-nitrophenoxy)acetamide], the IC50 on vanilloid receptor is more than 10000 nM.

Consider `CCc1cc(CNC(=O)COc2ccc(C(C)(C)C)cc2)cc(F)c1NS(C)(=O)=O` [Example 7, 2-(4-tert-Butylphenoxy)-N-(3-ethyl-5-fluoro-4-methanesulfonylaminobenzyl)acetamide], for which, on vanilloid receptor, the IC50 was determined as 130 nM. As for `CS(=O)(=O)Nc1ccc(CNC(=O)COc2ccc(Cl)c(Cl)c2)cc1F` [Example 25, 2-(3,4-Dichloro-phenoxy)-N-(3-fluoro-4-methanesulfonylaminobenzyl)-acetamide], the IC50 at vanilloid receptor stood at 2300 nM. For `CC(C)(C)c1cccc(OCC(=O)NCc2ccc(NS(C)(=O)=O)c(F)c2)c1` [Example 40, N-(3-Fluoro-4-methanesulfonylaminobenzyl)-2-(3-tert-butylphenoxy)acetamide], the IC50 on vanilloid receptor came to 1800 nM. On the same count and under the same terms, the same measure for `CC(C)(C)c1ccc(OCC(=O)NCc2ccc(NS(C)(=O)=O)cc2)cc1` [Example 1, 2-(4-tert-Butylphenoxy)-N-(4-methanesulfonylaminobenzyl)acetamide]: 110 nM.

Turning to `CC(C)(C)c1ccc(OCC(=O)NCc2ccc(NS(C)(=O)=O)c(Cl)c2)cc1` [Example 3, 2-(4-tert-Butylphenoxy)-N-(3-chloro-4-methanesulfonylaminobenzyl)-acetamide], the IC50 at vanilloid receptor was 180 nM. Moreover, the inhibition in vivo at 1 mg/kg in the assay on Male ICR mice turned out to be 39%. On to `C=Cc1cc(CNC(=O)COc2ccc(C(C)(C)C)cc2)cc(F)c1NS(C)(=O)=O` [Example 5, 2-(4-tert-Butylphenoxy)-N-(3-fluoro-4-methanesulfonylamino-5-vinylbenzyl)acetamide], for which the IC50 at vanilloid receptor stood at 34 nM. Besides, the inhibition in vivo at 1 mg/kg in the assay with Male ICR mice was found to be 59%. As for `C[C@@H](Oc1ccc(C(C)(C)C)cc1)C(=O)NCc1ccc(NS(C)(=O)=O)c(F)c1` [Example 13, (R)-2-(4-tert-Butylphenoxy)-N-(3-fluoro-4-methanesulfonylaminobenzyl)propionamide], the IC50 at vanilloid receptor was found to be 160 nM. On to `C=Cc1cc(CNC(=O)COc2ccc(C(C)(C)C)cc2)ccc1NS(C)(=O)=O` [Example 4, 2-(4-tert-Butylphenoxy)-N-(4-methanesulfonylamino-3-vinylbenzyl)acetamide], for which the IC50 at vanilloid receptor is 81 nM. For `CC(C)c1ccc(OCC(=O)NCc2ccc(NS(C)(=O)=O)c(F)c2)cc1` [Example 52, N-(3-Fluoro-4-methanesulfonylaminobenzyl)-2-(4-isopropylphenoxy)acetamide], at vanilloid receptor, the IC50 was determined as 69 nM. Besides, the inhibition in vivo at 1 mg/kg in the assay on Male ICR mice was 49%. As for `CS(=O)(=O)Nc1ccc(CNC(=O)COc2ccc(Br)cc2)cc1F` [Example 45, 2-(4-Bromo-phenoxy)-N-(3-fluoro-4-methanesulfonylamino-benzyl)-acetamide], the IC50 on vanilloid receptor was found to be 3700 nM. The same measure, in the same setting: the same measure for `C[C@@H](NC(=S)COc1ccc(C(C)(C)C)cc1)c1ccc(NS(C)(=O)=O)cc1` [Example 15, (R)-2-(4-tert-Butylphenoxy)-N-[1-(4-methanesulfonylaminophenyl)ethyl]thioacetamide]: 680 nM. `COc1cc(Cl)ccc1OCC(=O)NCc1ccc(NS(C)(=O)=O)c(F)c1` [Example 32, 2-(4-Chloro-2-methoxy-phenoxy)-N-(3-fluoro-4methanesulfonylamino-benzyl)-acetamide]: the IC50 at vanilloid receptor was more than 10000 nM. Same read-out and setting: in the case of `Cc1cc(CNC(=O)COc2ccc(C(C)(C)C)cc2)cc(F)c1NS(C)(=O)=O` [Example 10, 2-(4-tert-Butylphenoxy)-N-(3-fluoro-4-methanesulfonylamino-5-methylbenzyl) acetamide] it was 160 nM; in that of `CS(=O)(=O)Nc1ccc(CNC(=O)COCc2ccc(C(F)(F)F)cc2C(F)(F)F)cc1F` [Example 56, N-(3-Fluoro-4-methanesulfonylaminobenzyl)-2-(2,4-bis(trifluoromethyl)benzyloxy)acetamide], 5100 nM; in that of `CS(=O)(=O)Nc1ccc(CNC(=O)COc2cccc(Br)c2)cc1F` [Example 46, 2-(3-Bromo-phenoxy)-N-(3-fluoro-4-methanesulfonylamino-benzyl)-acetamide], 1700 nM.

The values above are taken from patent EP1857440A1, “Novel compounds, isomer thereof, or pharmaceutically acceptable salts thereof as vanilloid receptor antagonist; and pharmaceutical compositions containing the same” (Amorepacific Corporation, priority 2006, dated 2007).
